{
  "source": "ChEMBL document CHEMBL1127875",
  "about": "(Bioorg Med Chem Lett, 1994)",
  "data": [
    {"target": "T1, Type-1 angiotensin II receptor (Oryctolagus cuniculus) (UniProt P34976)", "T1 sequence (whole entry)": "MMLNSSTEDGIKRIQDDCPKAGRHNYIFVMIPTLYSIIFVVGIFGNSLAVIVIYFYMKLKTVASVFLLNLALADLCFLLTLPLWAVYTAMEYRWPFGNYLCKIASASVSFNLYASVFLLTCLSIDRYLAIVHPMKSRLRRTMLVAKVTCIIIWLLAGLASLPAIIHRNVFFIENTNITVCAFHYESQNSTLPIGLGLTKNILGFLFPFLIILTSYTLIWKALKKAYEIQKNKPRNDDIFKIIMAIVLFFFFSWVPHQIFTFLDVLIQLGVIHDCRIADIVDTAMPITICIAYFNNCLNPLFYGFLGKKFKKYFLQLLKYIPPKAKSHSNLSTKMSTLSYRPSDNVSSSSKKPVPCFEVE", "assay": "In vitro antagonism of Angiotensin II receptor, type 1 in isolated rabbit thoracic aorta", "type": "functional, tissue-based", "settings": "not given", "units": {"Kb": "nM"}, "values": [
      {"compound": "CCCCCC[C@@H](C(=O)N1C[C@H](Oc2ccc(CC(=O)O)cc2)C[C@H]1C(=O)O)n1cnc(NC(=O)c2ccccc2S(=O)(=O)O)c1", "Kb": 555},
      {"compound": "CCCCCC[C@@H](C(=O)N1C[C@H](Oc2ccc(CC(=O)O)cc2)C[C@@H]1C(=O)O)n1cnc(NC(=O)c2ccccc2S(=O)(=O)O)c1", "Kb": 489},
      {"compound": "CCCCCC[C@H](C(=O)N1C[C@H](Oc2ccc(CC(=O)O)cc2)C[C@H]1C(=O)O)n1cnc(NC(=O)c2ccccc2S(=O)(=O)O)c1", "Kb": 503},
      {"compound": "CCCCCC[C@H](C(=O)N1C[C@@H](Oc2ccc(CC(=O)O)cc2)C[C@H]1C(=O)O)n1cnc(NC(=O)c2ccccc2S(=O)(=O)O)c1", "Kb": 0.12},
      {"compound": "CCCCCC[C@@H](C(=O)N1C[C@@H](Oc2ccc(CC(=O)O)cc2)C[C@@H]1C(=O)O)n1cnc(NC(=O)c2ccccc2S(=O)(=O)O)c1", "Kb": 761},
      {"compound": "CCCCCC[C@H](C(=O)N1C[C@@H](Oc2ccc(CC(=O)O)cc2)C[C@@H]1C(=O)O)n1cnc(NC(=O)c2ccccc2S(=O)(=O)O)c1", "Kb": 156},
      {"compound": "CCCCCC[C@@H](C(=O)N1C[C@@H](Oc2ccc(CC(=O)O)cc2)C[C@H]1C(=O)O)n1cnc(NC(=O)c2ccccc2S(=O)(=O)O)c1", "Kb": 4.5},
      {"compound": "CCCCCC[C@H](C(=O)N1C[C@H](Oc2ccc(CC(=O)O)cc2)C[C@@H]1C(=O)O)n1cnc(NC(=O)c2ccccc2S(=O)(=O)O)c1", "Kb": 191}
    ]},
    {"species": "Oryctolagus cuniculus", "assay": "pA2 value determined by their ability to block AngII induced contractile responses in rabbit aorta strips", "type": "functional", "settings": "read-out: pA2 (converted)", "units": {"Kb": "nM"}, "values": [
      {"compound": "CCCCCCC(C(=O)O)n1cnc(NC(=O)c2ccccc2C2N=NN=N2)c1", "note": "(stereo unspecified)", "Kb": 100},
      {"compound": "CCCCCCC(C(=O)O)n1cnc(NC(=O)c2cccc(O)c2C(=O)O)c1", "note": "(stereo unspecified)", "Kb": 100},
      {"compound": "CCCCCCC(C(=O)O)n1cnc(NC(=O)c2ccccc2C(=O)O)c1", "note": "(stereo unspecified)", "Kb": 100}
    ]}
  ]
}
